Measurements: patent US8735584B2 (Merck Patent GmbH, priority 2008, dated 2014)

Experiments:
GSK3b = target: T1, GSK3b (Homo sapiens, UniProt P49841); assay: Desktop Profiler kinase panel, GSK3b; assay type: biochemical; conditions: 10 micromolar concentration of the compound; read-out: Percent Inhibition GSK3b
T1 construct: purchased Caliper Life Sciences
Protocol: (§1) The Aurora assays described here are performed on two Caliper Life Sciences systems: the LC3000 and the Desktop Profiler. These provide data on enzyme activity via measurement of the relative amounts of phosphorylated or unphosphorylated fluorescently labelled substrate peptide at the end of an enzymatic reaction. These different states of peptide are resolved by applying a potential difference across the sample. The presence of the charged phosphate group on the product (as opposed to the substrate) causes a different peptide mobility between the two peptides. This is visualized by excitation of the fluorescent label on the substrate and product peptides and represented as peaks within the analysis software.
(§2) The Desktop Profiler utilizes the same principle as the LC3000 for calculating percentage conversion of a substrate to product. Caliper Life Sciences provides proprietary flash frozen pre-made 384 well plates containing selected kinases. Each column in the 384 well plate contains a particular selected kinase. A second plate, the ‘substrate plate’ contains a mix of fluorescently labeled peptide substrate and ATP. These are arranged in columns so that transfer for substrate plate to enzyme plate provides the correct enzyme with the correct substrate/ATP concentration. Compounds are added to a thawed enzyme plate in the desired format, in single concentrations. Reactions are initiated by transfer of the substrate/ATP mix from the substrate plate. The enzyme plate is incubated for 90 mins at 25 C. The reaction is stopped by addition of 70 ul of Stop Buffer (100 mM HEPES pH 7.5, 0.015% Brij-35, 10 mM EDTA (Sigma, E7889)).
(§3) Reading of the plate in the Profiler is identical to the LC3000, and the ratio between substrate and product peaks provides the activity of the enzyme in that well. This is best represented by a plate heat map which colors each well by percent inhibition as compared to positive and negative controls (no inhibitors and no ATP respectively).
(§4) In the following Tables 3a-4-b, which show the results of the desktop profiler measurements, “+” means 50-70% inhibition, “++” means 70-90% inhibition, and “+++” means >90% inhibition. The enzymes tested for profiling were ABL, AKT1, AKT2, AurA, CHK1, CHK2, CK1d, Erk1, Erk2, FYN, GSK3b, INSR, LCK, LYN, MAPKAPK2, MET, MSK1, p38a, PKA, PKCz, PKD2, PRAK, RSK1 and SRC.

LYN = target: T2, LYN (Homo sapiens, UniProt P07948); assay: Desktop Profiler kinase panel, LYN; assay type: biochemical
T2 construct: purchased Caliper Life Sciences
T2 sequence (P07948 whole entry, species assumed): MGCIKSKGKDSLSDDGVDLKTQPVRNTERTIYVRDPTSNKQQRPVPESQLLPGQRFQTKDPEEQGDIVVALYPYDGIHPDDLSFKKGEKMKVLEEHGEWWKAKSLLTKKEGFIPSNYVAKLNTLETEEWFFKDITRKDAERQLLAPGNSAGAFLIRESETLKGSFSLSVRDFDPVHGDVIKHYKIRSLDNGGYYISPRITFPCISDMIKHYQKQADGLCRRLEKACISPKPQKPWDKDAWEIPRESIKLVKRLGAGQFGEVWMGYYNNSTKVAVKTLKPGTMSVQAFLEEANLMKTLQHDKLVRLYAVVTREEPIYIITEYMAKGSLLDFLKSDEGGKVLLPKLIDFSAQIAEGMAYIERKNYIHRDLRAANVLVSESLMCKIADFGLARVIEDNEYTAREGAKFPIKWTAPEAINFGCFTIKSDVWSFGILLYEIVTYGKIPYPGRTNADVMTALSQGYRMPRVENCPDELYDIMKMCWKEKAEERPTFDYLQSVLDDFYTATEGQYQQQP
Protocol: as §1, §2, §3, §4

SRC = target: T3, SRC (Homo sapiens, UniProt P12931); assay: Desktop Profiler kinase panel, SRC; assay type: biochemical
T3 construct: purchased Caliper Life Sciences
T3 sequence (P12931 whole entry, species assumed): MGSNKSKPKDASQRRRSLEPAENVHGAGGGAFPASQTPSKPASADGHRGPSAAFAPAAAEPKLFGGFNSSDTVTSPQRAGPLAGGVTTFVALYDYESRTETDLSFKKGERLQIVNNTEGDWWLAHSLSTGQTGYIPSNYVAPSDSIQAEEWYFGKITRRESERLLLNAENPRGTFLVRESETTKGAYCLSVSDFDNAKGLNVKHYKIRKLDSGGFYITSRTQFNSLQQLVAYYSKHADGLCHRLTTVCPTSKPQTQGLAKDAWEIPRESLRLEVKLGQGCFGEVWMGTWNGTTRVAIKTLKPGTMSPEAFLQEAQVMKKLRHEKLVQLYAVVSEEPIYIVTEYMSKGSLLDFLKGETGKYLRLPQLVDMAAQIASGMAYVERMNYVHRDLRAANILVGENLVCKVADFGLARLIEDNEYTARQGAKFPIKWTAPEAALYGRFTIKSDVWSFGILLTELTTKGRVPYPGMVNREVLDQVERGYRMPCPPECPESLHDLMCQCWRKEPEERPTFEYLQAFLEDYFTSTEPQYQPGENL
Protocol: as §1, §2, §3, §4

CHK2 = target: T4, CHK2 (Homo sapiens, UniProt O96017); assay: Desktop Profiler kinase panel, CHK2; assay type: biochemical; conditions: 10 micromolar concentration of the compound; read-out: Percent Inhibition CHK2
T4 construct: purchased Caliper Life Sciences
T4 sequence (O96017 whole entry, species assumed): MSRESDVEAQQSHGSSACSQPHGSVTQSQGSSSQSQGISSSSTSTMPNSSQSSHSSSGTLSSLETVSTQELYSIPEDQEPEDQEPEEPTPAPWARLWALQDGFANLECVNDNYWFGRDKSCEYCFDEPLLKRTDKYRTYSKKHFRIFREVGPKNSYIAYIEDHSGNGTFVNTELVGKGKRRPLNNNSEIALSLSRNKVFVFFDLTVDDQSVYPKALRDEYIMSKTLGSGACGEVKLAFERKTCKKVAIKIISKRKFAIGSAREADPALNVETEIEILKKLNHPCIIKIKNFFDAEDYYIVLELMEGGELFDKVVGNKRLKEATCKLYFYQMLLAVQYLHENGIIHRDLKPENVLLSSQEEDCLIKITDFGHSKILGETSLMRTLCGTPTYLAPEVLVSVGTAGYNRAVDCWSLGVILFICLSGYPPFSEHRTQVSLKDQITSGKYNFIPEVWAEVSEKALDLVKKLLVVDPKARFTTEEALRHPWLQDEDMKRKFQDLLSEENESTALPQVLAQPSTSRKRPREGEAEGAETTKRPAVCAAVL
Protocol: as §1, §2, §3, §4

AurA = target: T5, AurA (Homo sapiens, UniProt O14965); assay: Desktop Profiler kinase panel, AurA; assay type: biochemical; conditions: 10 micromolar concentration of the compound; read-out: Percent Inhibition AurA
T5 construct: purchased Caliper Life Sciences
T5 sequence (O14965 1-403): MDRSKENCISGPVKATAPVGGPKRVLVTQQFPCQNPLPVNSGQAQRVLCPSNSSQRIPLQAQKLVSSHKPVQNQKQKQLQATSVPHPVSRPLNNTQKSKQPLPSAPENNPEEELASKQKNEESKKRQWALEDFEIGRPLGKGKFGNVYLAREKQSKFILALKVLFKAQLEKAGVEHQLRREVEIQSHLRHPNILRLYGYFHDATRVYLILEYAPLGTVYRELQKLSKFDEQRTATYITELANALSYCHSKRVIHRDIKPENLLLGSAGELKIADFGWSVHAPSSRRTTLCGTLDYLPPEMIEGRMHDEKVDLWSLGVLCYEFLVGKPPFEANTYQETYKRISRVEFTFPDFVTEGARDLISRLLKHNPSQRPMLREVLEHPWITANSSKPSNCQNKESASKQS
Protocol: as §1, §2, §3, §4

PKD2 = target: T6, PKD2 (Homo sapiens, UniProt Q9BZL6); assay: Desktop Profiler kinase panel, PKD2; assay type: biochemical; conditions: 10 micromolar concentration of the compound; read-out: Percent Inhibition PKD2
T6 construct: purchased Caliper Life Sciences
T6 sequence (Q9BZL6 1-878): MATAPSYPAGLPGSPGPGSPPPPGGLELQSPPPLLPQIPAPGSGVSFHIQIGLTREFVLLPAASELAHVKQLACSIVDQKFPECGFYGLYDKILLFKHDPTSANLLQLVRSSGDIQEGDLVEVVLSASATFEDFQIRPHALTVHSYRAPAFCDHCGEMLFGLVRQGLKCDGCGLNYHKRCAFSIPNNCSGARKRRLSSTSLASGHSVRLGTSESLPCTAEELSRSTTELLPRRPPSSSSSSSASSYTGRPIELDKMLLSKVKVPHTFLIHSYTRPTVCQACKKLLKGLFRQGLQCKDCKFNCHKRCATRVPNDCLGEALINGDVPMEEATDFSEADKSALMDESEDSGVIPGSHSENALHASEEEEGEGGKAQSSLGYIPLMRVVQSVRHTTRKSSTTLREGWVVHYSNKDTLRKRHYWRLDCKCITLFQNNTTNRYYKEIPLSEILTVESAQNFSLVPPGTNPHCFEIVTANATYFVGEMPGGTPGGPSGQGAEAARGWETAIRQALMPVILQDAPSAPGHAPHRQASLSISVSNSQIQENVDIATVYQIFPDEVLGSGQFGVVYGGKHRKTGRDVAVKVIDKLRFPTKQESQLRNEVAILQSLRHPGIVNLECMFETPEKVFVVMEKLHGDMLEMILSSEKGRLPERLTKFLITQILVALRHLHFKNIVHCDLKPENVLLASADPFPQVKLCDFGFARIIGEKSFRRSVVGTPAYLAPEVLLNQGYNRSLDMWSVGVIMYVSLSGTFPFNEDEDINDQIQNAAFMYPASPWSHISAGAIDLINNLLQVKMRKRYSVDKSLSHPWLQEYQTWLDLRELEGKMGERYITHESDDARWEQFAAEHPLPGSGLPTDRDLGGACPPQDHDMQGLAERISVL
Protocol: as §1, §2, §3, §4

p38a = target: T7, p38a (Homo sapiens, UniProt Q16539); assay: Desktop Profiler kinase panel, p38a; assay type: biochemical; conditions: 1 micromolar concentration of the compound
T7 construct: purchased Caliper Life Sciences
T7 sequence (Q16539 whole entry): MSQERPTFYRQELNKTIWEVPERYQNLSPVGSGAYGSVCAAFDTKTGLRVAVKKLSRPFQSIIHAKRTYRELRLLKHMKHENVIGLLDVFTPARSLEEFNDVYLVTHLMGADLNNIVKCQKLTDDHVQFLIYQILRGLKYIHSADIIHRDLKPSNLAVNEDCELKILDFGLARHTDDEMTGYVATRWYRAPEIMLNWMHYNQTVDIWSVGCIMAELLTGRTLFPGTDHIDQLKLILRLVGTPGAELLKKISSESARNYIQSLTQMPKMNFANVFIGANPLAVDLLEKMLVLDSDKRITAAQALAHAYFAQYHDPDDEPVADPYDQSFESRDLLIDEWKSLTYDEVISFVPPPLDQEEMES
Protocol: as §1
The Desktop Profiler utilizes the same principle as the LC3000 for calculating percentage conversion of a substrate to product. Caliper Life Sciences provides proprietary flash frozen pre-made 384 well plates containing selected kinases. Each column in the 384 well plate contains a particular selected kinase. A second plate, the ‘substrate plate’ contains a mix of fluorescently labeled peptide substrate and ATP. […]
Reading of the plate in the Profiler is identical to the LC3000, and the ratio between substrate and product peaks provides the activity of the enzyme in that well. […]

CK1d = target: T8, CK1d (Homo sapiens, UniProt P48730); assay: Desktop Profiler kinase panel, CK1d; assay type: biochemical
T8 construct: purchased Caliper Life Sciences
T8 sequence (P48730 whole entry): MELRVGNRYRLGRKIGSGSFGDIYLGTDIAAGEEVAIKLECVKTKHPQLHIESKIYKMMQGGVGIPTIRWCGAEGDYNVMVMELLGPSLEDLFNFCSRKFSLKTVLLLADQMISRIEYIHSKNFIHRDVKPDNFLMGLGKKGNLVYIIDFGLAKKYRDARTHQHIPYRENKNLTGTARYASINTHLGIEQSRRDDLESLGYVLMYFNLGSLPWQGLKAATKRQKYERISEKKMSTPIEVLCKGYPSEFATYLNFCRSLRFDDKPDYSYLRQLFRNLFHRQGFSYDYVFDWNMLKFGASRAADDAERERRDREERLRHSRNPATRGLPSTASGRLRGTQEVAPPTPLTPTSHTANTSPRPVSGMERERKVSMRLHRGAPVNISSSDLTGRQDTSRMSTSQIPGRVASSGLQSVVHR
Protocol: as §1, §2, §3, §4

ABL = target: T9, ABL (Homo sapiens, UniProt P00519); assay: Desktop Profiler kinase panel, ABL; assay type: biochemical
T9 construct: purchased Caliper Life Sciences
T9 sequence (P00519 whole entry, species assumed): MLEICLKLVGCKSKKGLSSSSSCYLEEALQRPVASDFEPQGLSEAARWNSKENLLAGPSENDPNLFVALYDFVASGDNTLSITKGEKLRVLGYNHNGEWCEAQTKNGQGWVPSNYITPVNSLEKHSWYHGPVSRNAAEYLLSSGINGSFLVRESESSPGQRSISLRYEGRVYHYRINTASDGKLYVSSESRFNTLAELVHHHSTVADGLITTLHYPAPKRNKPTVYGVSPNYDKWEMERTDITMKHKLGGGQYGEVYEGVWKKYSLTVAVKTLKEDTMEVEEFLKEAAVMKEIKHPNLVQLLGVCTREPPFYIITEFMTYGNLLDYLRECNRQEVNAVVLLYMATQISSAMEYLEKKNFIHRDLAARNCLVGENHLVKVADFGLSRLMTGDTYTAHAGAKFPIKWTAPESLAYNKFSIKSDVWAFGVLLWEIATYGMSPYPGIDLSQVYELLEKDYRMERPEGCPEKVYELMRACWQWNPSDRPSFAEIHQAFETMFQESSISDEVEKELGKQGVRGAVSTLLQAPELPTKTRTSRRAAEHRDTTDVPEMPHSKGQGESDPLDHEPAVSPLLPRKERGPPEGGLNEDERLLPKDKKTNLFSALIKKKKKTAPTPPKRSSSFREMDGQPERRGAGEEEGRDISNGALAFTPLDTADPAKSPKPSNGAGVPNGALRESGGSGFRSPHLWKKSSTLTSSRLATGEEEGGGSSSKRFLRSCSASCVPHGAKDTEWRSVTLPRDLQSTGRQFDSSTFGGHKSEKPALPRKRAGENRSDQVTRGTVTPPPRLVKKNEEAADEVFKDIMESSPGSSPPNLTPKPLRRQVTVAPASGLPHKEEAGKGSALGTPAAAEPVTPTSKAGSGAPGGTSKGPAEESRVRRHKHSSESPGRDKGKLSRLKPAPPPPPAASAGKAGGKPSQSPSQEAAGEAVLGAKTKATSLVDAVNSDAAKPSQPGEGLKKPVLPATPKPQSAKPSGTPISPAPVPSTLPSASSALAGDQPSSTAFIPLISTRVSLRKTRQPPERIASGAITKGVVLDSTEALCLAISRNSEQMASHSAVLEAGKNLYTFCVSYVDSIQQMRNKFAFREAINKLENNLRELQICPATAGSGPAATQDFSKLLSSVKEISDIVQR
Protocol: as §1, §2, §3, §4

FYN = target: T10, FYN (Homo sapiens, UniProt P06241); assay: Desktop Profiler kinase panel, FYN; assay type: biochemical
T10 construct: purchased Caliper Life Sciences
T10 sequence (P06241 whole entry, species assumed): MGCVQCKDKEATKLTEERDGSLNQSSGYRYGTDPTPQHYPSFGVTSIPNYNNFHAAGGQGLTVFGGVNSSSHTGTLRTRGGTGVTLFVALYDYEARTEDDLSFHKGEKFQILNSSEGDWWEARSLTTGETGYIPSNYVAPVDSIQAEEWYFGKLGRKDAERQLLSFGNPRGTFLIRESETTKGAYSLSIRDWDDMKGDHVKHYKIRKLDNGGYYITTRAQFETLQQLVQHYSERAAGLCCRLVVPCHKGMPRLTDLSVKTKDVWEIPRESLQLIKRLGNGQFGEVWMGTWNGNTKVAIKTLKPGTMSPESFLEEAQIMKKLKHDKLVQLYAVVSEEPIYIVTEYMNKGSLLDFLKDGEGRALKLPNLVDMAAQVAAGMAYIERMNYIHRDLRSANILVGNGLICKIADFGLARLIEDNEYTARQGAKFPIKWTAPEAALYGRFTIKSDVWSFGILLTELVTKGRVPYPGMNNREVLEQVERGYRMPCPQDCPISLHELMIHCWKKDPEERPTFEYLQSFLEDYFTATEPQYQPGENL
Protocol: as §1, §2, §3, §4

AKT2 = target: T11, AKT2 (Homo sapiens, UniProt P31751); assay: Desktop Profiler kinase panel, AKT2; assay type: biochemical; conditions: 10 micromolar concentration of the compound; read-out: Percent Inhibition AKT2
T11 construct: purchased Caliper Life Sciences
T11 sequence (P31751 whole entry, species assumed): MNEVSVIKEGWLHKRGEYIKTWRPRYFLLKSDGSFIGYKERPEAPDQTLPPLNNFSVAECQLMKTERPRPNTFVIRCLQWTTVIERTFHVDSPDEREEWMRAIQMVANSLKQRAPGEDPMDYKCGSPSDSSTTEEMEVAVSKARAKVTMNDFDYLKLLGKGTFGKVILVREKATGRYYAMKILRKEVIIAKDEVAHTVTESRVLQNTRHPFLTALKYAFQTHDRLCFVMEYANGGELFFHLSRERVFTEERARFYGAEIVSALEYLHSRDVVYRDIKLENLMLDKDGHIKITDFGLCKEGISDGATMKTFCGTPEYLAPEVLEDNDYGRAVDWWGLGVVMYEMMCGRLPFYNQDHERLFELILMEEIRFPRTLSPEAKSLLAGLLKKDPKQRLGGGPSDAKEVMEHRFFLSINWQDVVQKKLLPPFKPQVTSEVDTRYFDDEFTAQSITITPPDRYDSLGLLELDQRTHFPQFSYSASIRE
Protocol: as §1, §2, §3, §4

human tumor xenograft = human tumor xenograft model; several intermittent dosing schedules; cited from earlier work
[1] = tested on: tumor cells of various origins / normal human cells; conditions: in vitro; cited from earlier work
[2] = tested on: leukemia, colon and pancreatic tumors; conditions: variety of in vivo xenograft models; well-tolerated doses; cited from earlier work
[3] = 1 micromolar concentration of the compound

T1 sequence (P49841 whole entry, species assumed): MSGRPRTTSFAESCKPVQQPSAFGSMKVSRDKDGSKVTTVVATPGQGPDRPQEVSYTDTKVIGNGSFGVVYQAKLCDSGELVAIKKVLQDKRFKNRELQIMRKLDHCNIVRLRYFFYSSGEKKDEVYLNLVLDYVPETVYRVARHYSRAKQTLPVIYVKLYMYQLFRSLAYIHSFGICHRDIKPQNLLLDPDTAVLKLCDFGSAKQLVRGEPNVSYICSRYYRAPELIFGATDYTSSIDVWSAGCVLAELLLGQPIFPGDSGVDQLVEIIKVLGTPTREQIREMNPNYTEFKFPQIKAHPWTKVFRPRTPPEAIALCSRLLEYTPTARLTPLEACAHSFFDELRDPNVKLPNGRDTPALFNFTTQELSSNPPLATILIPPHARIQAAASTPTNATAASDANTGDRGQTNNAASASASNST

SMILES: O=c1[nH]c2nccc(NCc3ccccc3)c2c2ccccc12 [Example 96, 1-Benzylamino-5H-benzo[c][1,8]naphthyridin-6-one]
- inhibition at 10 µM (GSK3b): 50 to 70%
- inhibition at 1 µM (LYN; [3]): 70 to 90%
- inhibition at 10 µM (LYN; 10 micromolar concentration of the compound, read-out: Percent Inhibition LYN): 70 to 90%
- inhibition at 1 µM (SRC; [3]): 50 to 70%
- inhibition at 10 µM (SRC; 10 micromolar concentration of the compound, read-out: Percent Inhibition SRC): 50 to 70%
- inhibition at 10 µM (CHK2): 50 to 70%
- inhibition at 10 µM (AurA): 70 to 90%
- inhibition at 10 µM (PKD2): 50 to 70%
- inhibition at 1 µM (p38a): 50 to 70%
- inhibition at 1 µM (CK1d; [3]): 50 to 70%
- inhibition at 10 µM (CK1d; 10 micromolar concentration of the compound, read-out: Percent Inhibition CK1d): 50 to 70%
- inhibition at 1 µM (ABL; [3]): 70 to 90%
- inhibition at 10 µM (ABL; 10 micromolar concentration of the compound, read-out: Percent Inhibition ABL): 70 to 90%
- inhibition at 1 µM (FYN; [3]): 70 to 90%
- inhibition at 10 µM (FYN; 10 micromolar concentration of the compound, read-out: Percent Inhibition FYN): 70 to 90%
- inhibition at 10 µM (AKT2): 50 to 70%

SMILES: Nc1nc(Nc2ccc(S(N)(=O)=O)cc2)nn1C(=O)c1c(F)cccc1F [JNJ-7706621]
- antitumor activity (human tumor xenograft): significant antitumor activity
- less effective at inhibiting normal human cell growth than tumor cell proliferation [1]: about 10 fold

SMILES: Cc1cc(Nc2cc(N3CCN(C)CC3)nc(Sc3ccc(NC(=O)C4CC4)cc3)n2)n[nH]1 [VX-680]
- inhibition of tumor growth [2]: profound inhibition of tumor growth
